Test results taken from patent publication USRE30451E, “Novel process for producing antibiotics bleomycin” (priority 1969, dated 1980).

System: Ehrlich ascites carcinoma cells
Conditions: maximum dose level at which mice survive 100 to 200 percent of control survival days; intraperitoneally once a day for 10 days, doses 25 mg/kg to 0.19 mg/kg

SMILES	ED50
Cc1c(N)nc(C(CC(N)=O)NCC(N)C(N)=O)nc1C(=O)NC(C(=O)NC(C)C(O)C(C)C(=O)NC(C(=O)NCCc1nc(-c2nc(C(=O)NCCCN3CCCCC3)cs2)cs1)C(C)O)C(OC1OC(CO)C(O)C(O)C1OC1OC(CO)C(O)C(OC(N)=O)C1O)c1cnc[nH]1 (stereo not shown) [Compound 25, 3-(piperidino)-propylamino-bleomycin]	0.39
Cc1c(N)nc(C(CC(N)=O)NCC(N)C(N)=O)nc1C(=O)NC(C(=O)NC(C)C(O)C(C)C(=O)NC(C(=O)NCCc1nc(-c2nc(C(=O)NCCN(C)C)cs2)cs1)C(C)O)C(OC1OC(CO)C(O)C(O)C1OC1OC(CO)C(O)C(OC(N)=O)C1O)c1cnc[nH]1 (stereo not shown) [Compound 9, 3-N,N-dimethylaminoethylamino-bleomycin]	0.39
CCCCNCCCNCCCNC(=O)c1csc(-c2csc(CCNC(=O)C(NC(=O)C(C)C(O)C(C)NC(=O)C(NC(=O)c3nc(C(CC(N)=O)NCC(N)C(N)=O)nc(N)c3C)C(OC3OC(CO)C(O)C(O)C3OC3OC(CO)C(O)C(OC(N)=O)C3O)c3cnc[nH]3)C(C)O)n2)n1 (stereo not shown) [Compound 12, 3-(3-N-butyl-aminopropyl)-aminopropylamino-bleomycin]	0.19
Cc1c(N)nc(C(CC(N)=O)NCC(N)C(N)=O)nc1C(=O)NC(C(=O)NC(C)C(O)C(C)C(=O)NC(C(=O)NCCc1nc(-c2nc(C(=O)NCCCN3CCN(CCCN)CC3)cs2)cs1)C(C)O)C(OC1OC(CO)C(O)C(O)C1OC1OC(CO)C(O)C(OC(N)=O)C1O)c1cnc[nH]1 (stereo not shown) [Compound 28, 3-[1-{4-(3-aminopropyl)}-piperazino]propylamino-bleomycin]	0.19
Cc1c(N)nc(C(CC(N)=O)NCC(N)C(N)=O)nc1C(=O)NC(C(=O)NC(C)C(O)C(C)C(=O)NC(C(=O)NCCc1nc(-c2nc(C(=O)NCCCNCCCNC3CCCCC3)cs2)cs1)C(C)O)C(OC1OC(CO)C(O)C(O)C1OC1OC(CO)C(O)C(OC(N)=O)C1O)c1cnc[nH]1 (stereo not shown) [Compound 39, 3-(3-cyclohexylaminopropyl)-aminopropylamino bleomycin]	0.19
Cc1c(N)nc(C(CC(N)=O)NCC(N)C(N)=O)nc1C(=O)NC(C(=O)NC(C)C(O)C(C)C(=O)NC(C(=O)NCCc1nc(-c2nc(C(=O)NCCCNC3CCCCC3)cs2)cs1)C(C)O)C(OC1OC(CO)C(O)C(O)C1OC1OC(CO)C(O)C(OC(N)=O)C1O)c1cnc[nH]1 (stereo not shown) [Compound 38, 3-cyclohexylaminopropylamino-bleomycin]	0.39
Cc1c(N)nc([C@H](CC(N)=O)NC[C@H](N)C(N)=O)nc1C(=O)N[C@H](C(=O)N[C@H](C)[C@@H](O)[C@H](C)C(=O)N[C@H](C(=O)NCCc1nc(-c2nc(C(=O)NCCC[S+](C)C)cs2)cs1)[C@@H](C)O)[C@@H](O[C@@H]1O[C@@H](CO)[C@@H](O)[C@H](O)[C@@H]1O[C@H]1O[C@H](CO)[C@@H](O)[C@H](OC(N)=O)[C@@H]1O)c1c[nH]cn1.[Br-] [Compound 1, Bleomycin A2, reference compound]	0.78
Cc1c(N)nc(C(CC(N)=O)NCC(N)C(N)=O)nc1C(=O)NC(C(=O)NC(C)C(O)C(C)C(=O)NC(C(=O)NCCc1nc(-c2nc(C(=O)NCCCNCCCN3CCOCC3)cs2)cs1)C(C)O)C(OC1OC(CO)C(O)C(O)C1OC1OC(CO)C(O)C(OC(N)=O)C1O)c1cnc[nH]1 (stereo not shown) [Compound 31, 3-(3-morpholinopropyl)-aminopropylamino-bleomycin]	0.19
Cc1c(N)nc(C(CC(N)=O)NCC(N)C(N)=O)nc1C(=O)NC(C(=O)NC(C)C(O)C(C)C(=O)NC(C(=O)NCCc1nc(-c2nc(C(=O)NCCCN(C)CCCN)cs2)cs1)C(C)O)C(OC1OC(CO)C(O)C(O)C1OC1OC(CO)C(O)C(OC(N)=O)C1O)c1cnc[nH]1 (stereo not shown) [Compound 22, 3-[N-methyl-N-(3-aminopropyl)]-aminopropylamino-bleomycin]	0.19
Cc1c(N)nc(C(CC(N)=O)NCC(N)C(N)=O)nc1C(=O)NC(C(=O)NC(C)C(O)C(C)C(=O)NC(C(=O)NCCc1nc(-c2nc(C(=O)NCCCN(C)C)cs2)cs1)C(C)O)C(OC1OC(CO)C(O)C(O)C1OC1OC(CO)C(O)C(OC(N)=O)C1O)c1cnc[nH]1 (stereo not shown) [Compound 19, 3-(N,N-dimethyl)-aminopropylamino-bleomycin]	0.39
CCN(CC)CCCNC(=O)c1csc(-c2csc(CCNC(=O)C(NC(=O)C(C)C(O)C(C)NC(=O)C(NC(=O)c3nc(C(CC(N)=O)NCC(N)C(N)=O)nc(N)c3C)C(OC3OC(CO)C(O)C(O)C3OC3OC(CO)C(O)C(OC(N)=O)C3O)c3cnc[nH]3)C(C)O)n2)n1 (stereo not shown) [Compound 11, 3,-N,N-diethylaminopropylamino-bleomycin]	0.19
Cc1c(N)nc(C(CC(N)=O)NCC(N)C(N)=O)nc1C(=O)NC(C(=O)NC(C)C(O)C(C)C(=O)NC(C(=O)NCCc1nc(-c2nc(C(=O)NCC3CCNCC3)cs2)cs1)C(C)O)C(OC1OC(CO)C(O)C(O)C1OC1OC(CO)C(O)C(OC(N)=O)C1O)c1cnc[nH]1 (stereo not shown) [Compound 41, 4-piperidylmethylamino-bleomycin]	0.78
Cc1c(N)nc(C(CC(N)=O)NCC(N)C(N)=O)nc1C(=O)NC(C(=O)NC(C)C(O)C(C)C(=O)NC(C(=O)NCCc1nc(-c2nc(C(=O)NCCC[N+](C)(C)C)cs2)cs1)C(C)O)C(OC1OC(CO)C(O)C(O)C1OC1OC(CO)C(O)C(OC(N)=O)C1O)c1cnc[nH]1 (stereo not shown) [Compound 20, 3-(N,N,N-trimethyl)-aminopropylamino-bleomycin]	0.19
CNCCCNC(=O)c1csc(-c2csc(CCNC(=O)C(NC(=O)C(C)C(O)C(C)NC(=O)C(NC(=O)c3nc(C(CC(N)=O)NCC(N)C(N)=O)nc(N)c3C)C(OC3OC(CO)C(O)C(O)C3OC3OC(CO)C(O)C(OC(N)=O)C3O)c3cnc[nH]3)C(C)O)n2)n1 (stereo not shown) [Compound 17, 3-N-methylaminopropylamino-bleomycin]	0.19
Cc1c(N)nc(C(CC(N)=O)NCC(N)C(N)=O)nc1C(=O)NC(C(=O)NC(C)C(O)C(C)C(=O)NC(C(=O)NCCc1nc(-c2nc(C(=O)NCCCNCCCN3CCCC3)cs2)cs1)C(C)O)C(OC1OC(CO)C(O)C(O)C1OC1OC(CO)C(O)C(OC(N)=O)C1O)c1cnc[nH]1 (stereo not shown) [Compound 29, 3-(3-pyrrolidinopropyl)-aminopropylamino-bleomycin]	0.09
CO[C@@]12[C@H](COC(N)=O)C3=C(C(=O)C(C)=C(N)C3=O)N1C[C@@H]1N[C@@H]12 [Mytomycin C, reference compound]	0.39
Cc1c(N)nc(C(CC(N)=O)NCC(N)C(N)=O)nc1C(=O)NC(C(=O)NC(C)C(O)C(C)C(=O)NC(C(=O)NCCc1nc(-c2nc(C(=O)NCC(C)N)cs2)cs1)C(C)O)C(OC1OC(CO)C(O)C(O)C1OC1OC(CO)C(O)C(OC(N)=O)C1O)c1cnc[nH]1 (stereo not shown) [Compound 16, 2-aminopropylamino-bleomycin]	0.39
Cc1c(N)nc(C(CC(N)=O)NCC(N)C(N)=O)nc1C(=O)NC(C(=O)NC(C)C(O)C(C)C(=O)NC(C(=O)NCCc1nc(-c2nc(C(=O)NCCc3cnc[nH]3)cs2)cs1)C(C)O)C(OC1OC(CO)C(O)C(O)C1OC1OC(CO)C(O)C(OC(N)=O)C1O)c1cnc[nH]1 (stereo not shown) [Compound 42, 2-(4-imidazolyl)-ethylamino-bleomycin]	0.78
Cc1c(N)nc(C(CC(N)=O)NCC(N)C(N)=O)nc1C(=O)NC(C(=O)NC(C)C(O)C(C)C(=O)NC(C(=O)NCCc1nc(-c2nc(C(=O)NCCCN3CCOCC3)cs2)cs1)C(C)O)C(OC1OC(CO)C(O)C(O)C1OC1OC(CO)C(O)C(OC(N)=O)C1O)c1cnc[nH]1 (stereo not shown) [Compound 26, 3-(morpholino)-propylamoni-bleomycin]	0.78
